Assay: Prevention of degradation by oxidizing sanitizer (hypochlorite) in medicated drinking water
Format: physicochemical
Description: The Fluralaner level was determined using UHPLC. The alpha-tocopherol used was alpha-tocopherol EP (Fluka).
To prepare the test samples, the required amounts of Transcutol and Tween were measured, combined in a beaker at room temperature, and mixed magnetically. Next, when no protector was added, the required amount of Fluralaner was weighed, added, and mixed until complete dissolution, which usually required about 10 minutes, at 70% speed. […] The complete dissolution was verified visually. Next the density of the resulting solution was checked with a Densimeter, at 20° C.
To test the capacity of the different protectors to prevent degradation of Fluralaner in medicated drinking water by an oxidising sanitizer, samples of the pharmaceutical composition as prepared above were diluted to different concentrations, and incubated with different amounts of hypochlorite. Concentrations of Fluralaner in medicated drinking water used were: 1, 5, and 10 μg/ml.
The hypochlorite used was from a 13% sodium hypochlorite solution (Acros Organics), which was prepared into samples with a concentration of hypochlorite of: 0, 0.5, 2, 5, or 10 ppm, wherein 1 ppm equals 20 μM. Samples without hypochlorite served as positive controls. While the dilutions of hypochlorite were made in purified water, one additional sample at 5 ppm hypochlorite was prepared in standard tap water (Angers, France). Control samples were tested at day zero, all others were tested after an incubation for 7 days at 40° C./75% RH.
The concentration of protector in the test sample was dependent of the dilution factor of the concentrated Fluralaner composition applied: 1:10,000, 1:2000, or 1:1000, respectively.

[1] = Conc. Fluralaner 1 μg/ml, hypochlorite 0 ppm, T = 0
[2] = Conc. Fluralaner 1 μg/ml, hypochlorite 0 ppm, T = 7 d at 40° C./75% RH
[3] = Conc. Fluralaner 1 μg/ml, hypochlorite 0.5 ppm, T = 7 d at 40° C./75% RH
[4] = Conc. Fluralaner 1 μg/ml, hypochlorite 2 ppm, T = 7 d at 40° C./75% RH
[5] = Conc. Fluralaner 1 μg/ml, hypochlorite 5 ppm (tapw.), T = 7 d at 40° C./75% RH
[6] = Conc. Fluralaner 1 μg/ml, hypochlorite 5 ppm, T = 7 d at 40° C./75% RH
[7] = Conc. Fluralaner 1 μg/ml, hypochlorite 10 ppm, T = 7 d at 40° C./75% RH
[8] = Conc. Fluralaner 5 μg/ml, hypochlorite 0 ppm, T = 0
[9] = Conc. Fluralaner 5 μg/ml, hypochlorite 0 ppm, T = 7 d at 40° C./75% RH
[10] = Conc. Fluralaner 5 μg/ml, hypochlorite 0.5 ppm, T = 7 d at 40° C./75% RH
[11] = Conc. Fluralaner 5 μg/ml, hypochlorite 2 ppm, T = 7 d at 40° C./75% RH
[12] = Conc. Fluralaner 5 μg/ml, hypochlorite 5 ppm (tapw.), T = 7 d at 40° C./75% RH
[13] = Conc. Fluralaner 5 μg/ml, hypochlorite 5 ppm, T = 7 d at 40° C./75% RH
[14] = Conc. Fluralaner 5 μg/ml, hypochlorite 10 ppm, T = 7 d at 40° C./75% RH
[15] = Conc. Fluralaner 10 μg/ml, hypochlorite 0 ppm, T = 0
[16] = Conc. Fluralaner 10 μg/ml, hypochlorite 0 ppm, T = 7 d at 40° C./75% RH
[17] = Conc. Fluralaner 10 μg/ml, hypochlorite 0.5 ppm, T = 7 d at 40° C./75% RH
[18] = Conc. Fluralaner 10 μg/ml, hypochlorite 2 ppm, T = 7 d at 40° C./75% RH
[19] = Conc. Fluralaner 10 μg/ml, hypochlorite 5 ppm (tapw.), T = 7 d at 40° C./75% RH
[20] = Conc. Fluralaner 10 μg/ml, hypochlorite 5 ppm, T = 7 d at 40° C./75% RH
[21] = Conc. Fluralaner 10 μg/ml, hypochlorite 10 ppm, T = 7 d at 40° C./75% RH

Cc1cc(C2=NOC(c3cc(Cl)cc(Cl)c3)(C(F)(F)F)C2)ccc1C(=O)NCC(=O)NCC(F)(F)F (stereo not drawn) [Fluralaner]
Fluralaner content in medicated drinking water; alpha-tocopherol as protector [1]: 0.91 µg/mL
Fluralaner content in medicated drinking water; no protector [1]: 0.93 µg/mL
Fluralaner content in medicated drinking water; alpha-tocopherol as protector [2]: 0.89 µg/mL
Fluralaner content in medicated drinking water; no protector [2]: 0.92 µg/mL
Fluralaner content in medicated drinking water; alpha-tocopherol as protector [3]: 0.91 µg/mL
Fluralaner content in medicated drinking water; no protector [3]: 0.91 µg/mL
Fluralaner content in medicated drinking water; alpha-tocopherol as protector [4]: 0.92 µg/mL
Fluralaner content in medicated drinking water; no protector [4]: 0.91 µg/mL
Fluralaner content in medicated drinking water; alpha-tocopherol as protector [5]: 0.86 µg/mL
Fluralaner content in medicated drinking water; no protector [5]: 0.13 µg/mL
Fluralaner content in medicated drinking water; alpha-tocopherol as protector [6]: 0.89 µg/mL
Fluralaner content in medicated drinking water; no protector [6]: 0.29 µg/mL
Fluralaner content in medicated drinking water; alpha-tocopherol as protector [7]: 0.05 µg/mL
Fluralaner content in medicated drinking water; no protector [7]: <LoQ
Fluralaner content in medicated drinking water; alpha-tocopherol as protector [8]: 5.52 µg/mL
Fluralaner content in medicated drinking water; no protector [8]: 5.50 µg/mL
Fluralaner content in medicated drinking water; alpha-tocopherol as protector [9]: 5.45 µg/mL
Fluralaner content in medicated drinking water; no protector [9]: 5.51 µg/mL
Fluralaner content in medicated drinking water; alpha-tocopherol as protector [10]: 5.52 µg/mL
Fluralaner content in medicated drinking water; no protector [10]: 5.52 µg/mL
Fluralaner content in medicated drinking water; alpha-tocopherol as protector [11]: 5.52 µg/mL
Fluralaner content in medicated drinking water; no protector [11]: 5.50 µg/mL
Fluralaner content in medicated drinking water; alpha-tocopherol as protector [12]: 5.42 µg/mL
Fluralaner content in medicated drinking water; no protector [12]: 4.43 µg/mL
Fluralaner content in medicated drinking water; alpha-tocopherol as protector [13]: 5.49 µg/mL
Fluralaner content in medicated drinking water; no protector [13]: 5.31 µg/mL
Fluralaner content in medicated drinking water; alpha-tocopherol as protector [14]: 5.56 µg/mL
Fluralaner content in medicated drinking water; no protector [14]: 1.54 µg/mL
Fluralaner content in medicated drinking water; alpha-tocopherol as protector [15]: 10.14 µg/mL
Fluralaner content in medicated drinking water; no protector [15]: 10.10 µg/mL
Fluralaner content in medicated drinking water; alpha-tocopherol as protector [16]: 10.01 µg/mL
Fluralaner content in medicated drinking water; no protector [16]: 10.07 µg/mL
Fluralaner content in medicated drinking water; alpha-tocopherol as protector [17]: 10.10 µg/mL
Fluralaner content in medicated drinking water; no protector [17]: 10.03 µg/mL
Fluralaner content in medicated drinking water; alpha-tocopherol as protector [18]: 10.10 µg/mL
Fluralaner content in medicated drinking water; no protector [18]: 10.03 µg/mL
Fluralaner content in medicated drinking water; alpha-tocopherol as protector [19]: 9.94 µg/mL
Fluralaner content in medicated drinking water; no protector [19]: 8.69 µg/mL
Fluralaner content in medicated drinking water; alpha-tocopherol as protector [20]: 9.99 µg/mL
Fluralaner content in medicated drinking water; no protector [20]: 9.97 µg/mL
Fluralaner content in medicated drinking water; alpha-tocopherol as protector [21]: 10.05 µg/mL
Fluralaner content in medicated drinking water; no protector [21]: 5.05 µg/mL

From patent US11179372B2, “Isoxazoline solution containing vitamin E for use with sanitized drinking water” (Intervet Inc., priority 2015, dated 2021)
